Assay results published in ChEMBL document CHEMBL1201862, “PubChem BioAssay data set” (2004).
Where “and” joins values, the source holds several entries; their conditions need not be identical. Equal entries are not always repeated.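 Five compound concentrations were applied to cells in 96-well plates for 48 hours; endpoints were derived by simple linear interpolation of the resulting dose-response curve. Abbreviation: GI50, concentration required for 50% inhibition of growth.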 Calls of active or inactive are those of the source. No stated cut-off is given here; in the data, active = GI50 up to about 1.1 µM and inactive = higher.

Key:
Experiment in all cases: NCI tumour cell line growth inhibition, 48 h
786-0 = system: 786-0
A498 = system: A498
A549 = system: A549
ACHN = system: ACHN
BT-549 = system: BT-549
CAKI-1 = system: CAKI-1
CCRF-CEM = system: CCRF-CEM
COLO 205 = system: COLO 205
DU-145 = system: DU-145
EKVX = system: EKVX
HCC 2998 = system: HCC 2998
HCT-116 = system: HCT-116
HCT-15 = system: HCT-15
HL-60 = system: HL-60
HOP-62 = system: HOP-62
HOP-92 = system: HOP-92
HT-29 = system: HT-29
Hs-578T = system: Hs-578T
IGROV-1 = system: IGROV-1
K562 = system: K562
KM12 = system: KM12
LOX IMVI = system: LOX IMVI
M14 = system: M14
MCF7 = system: MCF7
MDA-MB-231 = system: MDA-MB-231
MDA-MB-435 = system: MDA-MB-435
MDA-N = system: MDA-N
MOLT-4 = system: MOLT-4
Malme-3M = system: Malme-3M
NCI-H226 = system: NCI-H226
NCI-H23 = system: NCI-H23
NCI-H460 = system: NCI-H460
NCI-H522 = system: NCI-H522
NCI/ADR-RES = system: NCI/ADR-RES
OVCAR-3 = system: OVCAR-3
OVCAR-4 = system: OVCAR-4
OVCAR-5 = system: OVCAR-5
OVCAR-8 = system: OVCAR-8
PC-3 = system: PC-3
RPMI-8226 = system: RPMI-8226
RXF 393 = system: RXF 393
SF-268 = system: SF-268
SF-295 = system: SF-295
SF-539 = system: SF-539
SK-MEL-28 = system: SK-MEL-28
SK-MEL-2 = system: SK-MEL-2
SK-MEL-5 = system: SK-MEL-5
SK-OV-3 = system: SK-OV-3
SN12C = system: SN12C
SNB-19 = system: SNB-19
SNB-75 = system: SNB-75
SR = system: SR
SW-620 = system: SW-620
TK-10 = system: TK-10
U-251 = system: U-251
UACC-257 = system: UACC-257
UACC-62 = system: UACC-62
UO-31 = system: UO-31
T47D = system: T47D

Structure (SMILES): CN(CCCCCl)P(=O)(OCc1ccc([N+](=O)[O-])o1)OC[C@H]1O[C@@H](n2cc(F)c(=O)[nH]c2=O)C[C@@H]1O (stereo partly specified)
- GI50 (786-0): 0.883 µM (active)
- GI50 (A498): 23.6 nM (active)
- GI50 (A549): 30.1 nM (active)
- GI50 (ACHN): 0.0365 µM (active)
- GI50 (BT-549): 2.84 µM (inactive)
- GI50 (CAKI-1): 0.0693 µM (active)
- GI50 (CCRF-CEM): 173 nM (active)
- GI50 (COLO 205): < 10 nM (active)
- GI50 (DU-145): 569 nM (active)
- GI50 (EKVX): 35.4 µM (inactive)
- GI50 (HCC 2998): < 10 nM (active)
- GI50 (HCT-116): 995 nM (active)
- GI50 (HCT-15): 21.6 µM
- GI50 (HL-60): 0.766 µM (active)
- GI50 (HOP-62): 145 nM (active)
- GI50 (HOP-92): 0.64 µM (active)
- GI50 (HT-29): 502 nM (active)
- GI50 (Hs-578T): 514 nM (active)
- GI50 (IGROV-1): 1.58 µM (inactive)
- GI50 (K562): 12.4 µM (inactive)
- GI50 (KM12): 12.4 µM (inactive)
- GI50 (LOX IMVI): 70 nM (active)
- GI50 (M14): 1.04 µM (active)
- GI50 (MCF7): < 22.7 nM (active)
- GI50 (MDA-MB-231): 12.9 µM (inactive)
- GI50 (MDA-MB-435): 5.85 µM (inactive)
- GI50 (MDA-N): 7.03 µM (inactive)
- GI50 (MOLT-4): 583 nM (active)
- GI50 (Malme-3M): 3.25 µM (inactive)
- GI50 (NCI-H226): 3.59 µM (inactive)
- GI50 (NCI-H23): 989 nM (active)
- GI50 (NCI-H460): < 10 nM (active)
- GI50 (NCI-H522): 3.77 µM (inactive)
- GI50 (NCI/ADR-RES): 65.8 nM (active)
- GI50 (OVCAR-3): 520 nM (active)
- GI50 (OVCAR-4): 12.8 µM (inactive)
- GI50 (OVCAR-5): > 44.5 µM (inactive)
- GI50 (OVCAR-8): 0.352 µM (active)
- GI50 (PC-3): 4.34 µM (inactive)
- GI50 (RPMI-8226): 1.27 µM (inactive)
- GI50 (RXF 393): 302 nM (active)
- GI50 (SF-268): 28.4 nM (active)
- GI50 (SF-295): 91.4 nM (active)
- GI50 (SF-539): < 10 nM (active)
- GI50 (SK-MEL-28): 21.2 µM (inactive)
- GI50 (SK-MEL-2): 17.1 µM (inactive)
- GI50 (SK-MEL-5): 0.849 µM (active)
- GI50 (SK-OV-3): 372 nM (active)
- GI50 (SN12C): 107 nM (active)
- GI50 (SNB-19): 1.85 µM (inactive)
- GI50 (SNB-75): 102 nM (active)
- GI50 (SR): 0.0702 µM (active)
- GI50 (SW-620): 17.3 µM (inactive)
- GI50 (TK-10): 1.79 µM (inactive)
- GI50 (U-251): 1.63 µM (inactive)
- GI50 (UACC-257): 30.8 µM (inactive)
- GI50 (UACC-62): 437 nM (active)
- GI50 (UO-31): 355 nM (active)

Structure (SMILES): Cc1cc(O)c2c(c1)C(=O)C=CC2=O [RAMENTACEONE]
- GI50 (A498): 22 µM (inactive) and 31.4 µM (inactive)
- GI50 (A549): 25.4 µM (inactive) and 19.1 µM (inactive)
- GI50 (CCRF-CEM): 121 nM (active) and 212 nM (active)
- GI50 (COLO 205): 3.92 µM (inactive) and 2.74 µM (inactive)
- GI50 (DU-145): 19.7 µM (inactive) and 16.4 µM (inactive)
- GI50 (HCC 2998): 11.2 µM (inactive) and 15.6 µM (inactive)
- GI50 (HCT-116): 4.34 µM (inactive) and 3.72 µM (inactive)
- GI50 (HOP-62): 19.5 µM (inactive) and 21 µM (inactive)
- GI50 (HT-29): 7.05 µM (inactive) and 5.74 µM (inactive)
- GI50 (Hs-578T): 19.4 µM (inactive) and 15.7 µM (inactive)
- GI50 (IGROV-1): 14.1 µM (inactive) and 9.38 µM (inactive)
- GI50 (KM12): 14.1 µM (inactive) and 16.1 µM (inactive)
- GI50 (LOX IMVI): 3.04 µM (inactive) and 5.55 µM (inactive)
- GI50 (M14): 6.68 µM (inactive) and 8.77 µM (inactive)
- GI50 (MCF7): 7.05 µM (inactive) and 4.79 µM (inactive)
- GI50 (MDA-MB-231): 5.06 µM (inactive) and 9.31 µM (inactive)
- GI50 (MDA-N): 2.21 µM (inactive) and 3.56 µM (inactive)
- GI50 (MOLT-4): 424 nM (active) and 298 nM (active)
- GI50 (NCI-H226): 18.6 µM (inactive) and 17.8 µM (inactive)
- GI50 (NCI-H23): 8.39 µM (inactive) and 12.4 µM (inactive)
- GI50 (NCI-H460): 19.3 µM (inactive) and 16.3 µM (inactive)
- GI50 (NCI/ADR-RES): 8.15 µM (inactive) and 15.9 µM (inactive)
- GI50 (OVCAR-3): 1.66 µM (inactive) and 2.27 µM (inactive)
- GI50 (OVCAR-5): 19.4 µM (inactive) and 18 µM (inactive)
- GI50 (PC-3): 11.2 µM (inactive) and 17.7 µM (inactive)
- GI50 (RXF 393): 4.41 µM (inactive) and 2.7 µM (inactive)
- GI50 (SF-268): 17.7 µM (inactive) and 10.4 µM (inactive)
- GI50 (SF-295): 16.5 µM (inactive) and 17.4 µM (inactive)
- GI50 (SF-539): 16.9 µM (inactive) and 14.9 µM (inactive)
- GI50 (SK-MEL-2): 14.9 µM (inactive) and 19.1 µM (inactive)
- GI50 (SK-OV-3): 27.9 µM (inactive) and 28 µM (inactive)
- GI50 (SN12C): 7.76 µM (inactive) and 12.1 µM (inactive)
- GI50 (SNB-19): 20.6 µM (inactive) and 17.1 µM (inactive)
- GI50 (SNB-75): 15.5 µM (inactive) and 16.6 µM (inactive)
- GI50 (T47D): 2.65 µM (inactive) and 3.11 µM (inactive)
- GI50 (UACC-257): 5.25 µM (inactive) and 4.05 µM (inactive)
- GI50 (UACC-62): 4.72 µM (inactive) and 7.38 µM (inactive)
- GI50 (UO-31): 4.69 µM (inactive) and 2.91 µM (inactive)
